Data reported in patent publication US11597724B2, “Herbicidally active 3-phenylisoxazoline-5-carboxamides of tetrahydro and dihydrofuran carboxylic acids and esters” (Bayer Aktiengesellschaft, priority 2017, dated 2023).

Tests used:
Assay type in all cases: in vivo
Alopecurus myosuroides = test: Post-emergence herbicidal activity against ALOMY; settings: dosage 320 g/ha, rated about 3 weeks after treatment
Description: (§1) ABUTH: Abutilon theophrasti ALOMY: Alopecurus myosuroides 2. Post-Emergence Herbicidal Action and Crop Plant Compatibility Seeds of monocotyledonous and dicotyledonous weeds and crop plants are placed in sandy loam in plastic or wood-fiber pots, covered with soil and cultivated in a greenhouse under controlled growth conditions. 2 to 3 weeks after sowing, the test plants are treated at the one-leaf stage. The compounds of the invention, formulated in the form of wettable powders (WP) or as emulsion concentrates (EC), are then sprayed onto the green parts of the plants as aqueous suspension or emulsion with addition of 0.5% additive at a water application rate of 600 l/ha (converted). After the test plants had been kept in the greenhouse under optimum growth conditions for about 3 weeks, the activity of the preparations is rated visually in comparison to untreated controls. For example, 100% activity=the plants have died, 0% activity=like control plants.

Avena fatua = test: Post-emergence herbicidal activity against AVEFA; settings: dosage 320 g/ha, rated about 3 weeks after treatment
Description: as §1, with “AMARE: Amaranthus retroflexus AVEFA: Avena fatua” for “ABUTH: Abutilon theophrasti ALOMY: Alopecurus myosuroides”

Echinochloa crus-galli = test: Post-emergence herbicidal activity against ECHCG; settings: dosage 320 g/ha, rated about 3 weeks after treatment
Description: as §1, with “ECHCG: Echinochloa crus-galli HORMU: Hordeum murinum” for “ABUTH: Abutilon theophrasti ALOMY: Alopecurus myosuroides”

Lolium rigidum = test: Post-emergence herbicidal activity against LOLRI; settings: dosage 320 g/ha, rated about 3 weeks after treatment
Description: as §1, with “LOLRI: Lolium rigidum PHBPU: Pharbitis purpurea” for “ABUTH: Abutilon theophrasti ALOMY: Alopecurus myosuroides”

Setaria viridis = test: Post-emergence herbicidal activity against SETVI; settings: dosage 320 g/ha, rated about 3 weeks after treatment
Description: as §1, with “POLCO: Polygonum convolvulus SETVI: Setaria viridis” for “ABUTH: Abutilon theophrasti ALOMY: Alopecurus myosuroides”

Abutilon theophrasti = test: Post-emergence herbicidal activity against ABUTH; settings: dosage 320 g/ha, rated about 3 weeks after treatment
Description: as §1

Amaranthus retroflexus = test: Post-emergence herbicidal activity against AMARE; settings: dosage 320 g/ha, rated about 3 weeks after treatment
Description: as §1, with “AMARE: Amaranthus retroflexus AVEFA: Avena fatua” for “ABUTH: Abutilon theophrasti ALOMY: Alopecurus myosuroides”

Pharbitis purpurea = test: Post-emergence herbicidal activity against PHBPU; settings: dosage 320 g/ha, rated about 3 weeks after treatment
Description: as §1, with “LOLRI: Lolium rigidum PHBPU: Pharbitis purpurea” for “ABUTH: Abutilon theophrasti ALOMY: Alopecurus myosuroides”

Polygonum convolvulus = test: Post-emergence herbicidal activity against POLCO; settings: dosage 320 g/ha, rated about 3 weeks after treatment
Description: as §1, with “POLCO: Polygonum convolvulus SETVI: Setaria viridis” for “ABUTH: Abutilon theophrasti ALOMY: Alopecurus myosuroides”

Stellaria media = test: Post-emergence herbicidal activity against STEME; settings: dosage 320 g/ha, rated about 3 weeks after treatment
Description: as §1, with “STEME: Stellaria media VERPE: Veronica persica” for “ABUTH: Abutilon theophrasti ALOMY: Alopecurus myosuroides”

Viola tricolor = test: Post-emergence herbicidal activity against VIOTR; settings: dosage 320 g/ha, rated about 3 weeks after treatment
Description: as §1, with “VIOTR: Viola tricolor” for “ABUTH: Abutilon theophrasti ALOMY: Alopecurus myosuroides”

Veronica persica = test: Post-emergence herbicidal activity against VERPE; settings: dosage 320 g/ha
Description: as §1, with “STEME: Stellaria media VERPE: Veronica persica” for “ABUTH: Abutilon theophrasti ALOMY: Alopecurus myosuroides”

Hordeum murinum = test: Post-emergence herbicidal activity against HORMU; settings: dosage 320 g/ha
Description: as §1, with “ECHCG: Echinochloa crus-galli HORMU: Hordeum murinum” for “ABUTH: Abutilon theophrasti ALOMY: Alopecurus myosuroides”

| SMILES | Post-emergence herbicidal activity against ALOMY in % (Alopecurus myosuroides) [%] | Post-emergence herbicidal activity against AVEFA in % (Avena fatua) [%] | Post-emergence herbicidal activity against ECHCG in % (Echinochloa crus-galli) [%] | Post-emergence herbicidal activity against LOLRI in % (Lolium rigidum) [%] | Post-emergence herbicidal activity against SETVI in % (Setaria viridis) [%] | Post-emergence herbicidal activity against ABUTH in % (Abutilon theophrasti) [%] | Post-emergence herbicidal activity against AMARE in % (Amaranthus retroflexus) [%] | Post-emergence herbicidal activity against PHBPU in % (Pharbitis purpurea) [%] | Post-emergence herbicidal activity against POLCO in % (Polygonum convolvulus) [%] | Post-emergence herbicidal activity against STEME in % (Stellaria media) [%] | Post-emergence herbicidal activity against VIOTR in % (Viola tricolor) [%] | Post-emergence herbicidal activity against VERPE in % (Veronica persica) [%] | Post-emergence herbicidal activity against HORMU in % (Hordeum murinum) [%] |
| --- | --- | --- | --- | --- | --- | --- | --- | --- | --- | --- | --- | --- | --- |
| CC(C)OC(=O)C1CC(NC(=O)C2(C(C)(F)F)CC(c3cc(F)cc(F)c3)=NO2)CO1 (centres unmarked) [I-51] | 100 | 100 | 90 | 90 | 90 | 80 | 80 | 90 | 90 | 90 | 90 | 90 | 90 |
| CC(F)(F)C1(C(=O)NC2COC(C(=O)O)C2)CC(c2cc(F)cc(F)c2)=NO1 (centres unmarked) [I-50] | 90 | 100 | 90 | 90 | 90 | 90 | 80 | 90 | 90 | 90 | 90 | 90 | 100 |
| C=CC1(C(=O)NC2COC(C(=O)OCc3ccc(OC)cc3)C2)CC(c2cc(F)cc(F)c2)=NO1 (mixture of isomers) [I-54] | 90 | 90 | 90 | 90 | 90 | 90 | 80 | 90 | 90 | 90 | 90 | 90 | 90 |
| CC1(C(=O)NC2COC(C(=O)OCc3cccc(F)c3)C2)CC(c2cc(F)cc(F)c2)=NO1 (mixture of isomers) [I-53] | 90 | 90 | 90 | 90 | 90 | 90 | 90 | 90 | 90 | 90 | 90 | 90 | 90 |
| C=CC1(C(=O)NC2COC(C(=O)OCc3cccc(F)c3)C2)CC(c2cc(F)cc(F)c2)=NO1 (mixture of isomers) [I-52] | 90 | 90 | 90 | 90 | 90 | 90 | 90 | 90 | 90 | 90 | 90 | 90 | 90 |
